# Assay results published in US20060241027A1, “Hiv inhibiting proteins” (priority 2002, published 2006).
# Like-named read-outs stand apart in the source and are kept apart here.
# Tests used:
# [1] = target: HIV-1 gp41 (transmembrane subunit of the HIV-1 envelope glycoprotein) (HIV-1) (UniProt P03377); test: cell-based or functional assay
# [2] = system: HIV-1; conditions: cited from earlier work
# [3] = system: HIV-2; conditions: cited from earlier work
# [4] = cited from earlier work; for terminal half-life: humans
# [5] = system: SIV; conditions: cited from earlier work
# [6] = system: HIV-1; conditions: low nanomolar range; cited from earlier work
# [7] = primates; cited from earlier work
# [8] = system: HIV; conditions: 12.5 mg/day to 200 mg/day (Gulick, 2002); cited from earlier work
substance,measurement,setting,value
"C-terminal albumin-(GGS)4GG-T-20 fusion protein, expressed in the pmt1 gene deficient yeast strain (from UniProt P02768 25-609)","50% inhibitory concentration, HIV-1 cell-cell fusion assay on Jurkat cells",[1],4 to 13 nM
"C-terminal albumin-(GGS)4GG-T-1249 fusion protein, produced in the standard (PMT1) yeast strain (from UniProt P02768 25-609)","50% inhibitory concentration (IC50), HIV-1 cell-cell fusion assay on Jurkat cells",[1],10 to 100 nM
enfuvirtide,activity against HIV-1,[2],active against several clades of HIV-1
same,activity against HIV-2,[3],does not inhibit
same,plasma half-life,"[4]; clinical trials, typical dose 50 mg twice daily",about 1.8 hours
same,terminal half-life,"[4]; 45 mg subcutaneous dose (Zhang X et al., 2002)",3.46 h
same,terminal half-life,"[4]; 180 mg subcutaneous dose (Zhang X et al., 2002)",4.35 h
same,activity against SIV,[5],does not inhibit
same,antiviral activity in cell-cell fusion assays,[6],0.2 to 2 nM
WQEWEQKITALLEQAQIQQEKNEYELQKLDKWASLWEWF [T-1249],half-life / AUC compared with T-20,[7],twofold increased AUC
same,activity against HIV-1,[2],active
same,activity against HIV-2,[3],active
same,activity against SIV,[5],active
same,suppression of HIV,[8],dose-related suppression of HIV
